From patent US20230320362A1, “COMPOSITION AND METHOD FOR WEED AND GRASS CONTROL” (United Industries Corporation, priority 2022, published 2023)

System: Crimson Clover, Annual Rye Grass, Rescue Grass
Assay: Field experiment: early burndown and herbicidal efficacy of glufosinate + diquat compositions (FIGS. 3A-3C)
Format: in vivo
Conditions: burndown agent combined with glufosinate
Description: “Herbicidal efficacy” or “herbicidal effectiveness,” as used herein, refers to any observable measure of control of weed or grass growth, which can include one or more of the actions of (1) killing, (2) inhibiting growth, reproduction or proliferation, and (3) removing, destroying, or otherwise diminishing the occurrence and activity of weeds or grasses. The herbicidal effectiveness data set forth herein report “control” as a percentage following a standard procedure in the art which reflects a visual assessment of plant mortality and growth reduction by comparison with untreated plants, made by technicians specially trained to make and record such observations. In all cases, a single technician makes all assessments of percent control within any one experiment or trial.
Various examples and comparatives examples of the weed control compositions and RTU solutions were prepared according to Table 2. The RTU solutions were applied to test fields with various types of weeds and grasses, and the burndown effect and/or the long-term efficacy of the test RTU solutions are observed and compared. Equipment, sprayer, and selected operating conditions for application of the RTU compositions to the test areas are provided in Table 3.
All field experiments were set in 1 m^2 plots replicated four times in a randomized complete block design with appropriate industry standards and untreated controls. The example compositions and comparative example compositions according to Table 2 were tested in the field experiments. […] Plots were sprayed once, and then assessed for speed to visible activity, percent (%) weed control, and percent residual control over time to determine burndown activity, speed to kill, extended control and residual pre-emergent activity.
For CCCCCCCCC(=O)O.N [Ammonium nonanoate], the “burndown compared to glufosinate alone” value was “enhanced burndown compared to glufosinate alone” and the “effectiveness as burndown agent, ammonium nonanoate versus Diquat” value was “superior effectiveness compared to Diquat”. In the case of c1cc[n+]2c(c1)-c1cccc[n+]1CC2 [Diquat], the “burndown compared to glufosinate alone” value is reported as “enhanced burndown compared to glufosinate alone”.

System: weed or grass
Assay: not given
Conditions: Table 1 Notes; cited from earlier work
In the case of O=C(O)c1cc(Oc2ccc(C(F)(F)F)cc2Cl)ccc1[N+](=O)[O-] [Acifluorfen], the “residual activity (in words)” value is given as “No residual activity”. For Nc1c([N+](=O)[O-])ccc(Oc2ccccc2)c1Cl [Aclonifen], the “residual activity (in words)” value is given as “Moderate residual activity”. For CCCCCCCCC(=O)O.N [Ammonium nonanoate], the “residual activity (in words)” value is given as “Top kill, no residual activity”. For Cc1ccc(C(=O)COc2c(C(=O)c3ccc(Cl)c(C)c3Cl)c(C)nn2C)cc1 [Benzafenap], the residual activity is listed as 38 days residual activity. In the case of CS(=O)(=O)c1ccc(C(=O)C2=C(Sc3ccccc3)C3CCC(C3)C2=O)c(Cl)c1 (stereo not drawn) [Benzobicyclon], the residual activity is given as 14 days residual activity. In the case of COC(=O)c1cc(Oc2ccc(Cl)cc2Cl)ccc1[N+](=O)[O-] [Bifenox], the “residual activity (in words)” value is listed as “Six to eight weeks residual activity”. For C=CCOC(=O)C(C)(C)OC(=O)c1cc(-n2c(=O)cc(C(F)(F)F)n(C)c2=O)ccc1Cl [Butafenacil], the “residual activity (in words)” value is listed as “No residual activity”. In the case of CCCCCCCC(=O)O [Caprylic/octanoic acid], the “residual activity (in words)” value is listed as “No residual activity”. In the case of CCOC(=O)C(Cl)Cc1cc(-n2nc(C)n(C(F)F)c2=O)c(F)cc1Cl (stereo not drawn) [Carfentrazone-ethyl], the “residual activity (in words)” value is given as “No residual activity”. In the case of CCOC(=O)/C(Cl)=C/c1cc(N2C(=O)C3=C(CCCC3)C2=O)ccc1Cl [Cinidon-ethyl], the “residual activity (in words)” value is listed as “No residual activity”. For c1cc[n+]2c(c1)-c1cccc[n+]1CC2 [Diquat], the “residual activity (in words)” value is given as “No residual activity”. In the case of CCOC(=O)COc1cc(-n2ncc(C(F)(F)F)c(C)c2=O)c(F)cc1Cl [Flufenpyr-ethyl], the “residual activity (in words)” value is listed as “No residual activity”. In the case of CCCCCOC(=O)COc1cc(N2C(=O)C3=C(CCCC3)C2=O)c(F)cc1Cl [Flumiclorac pentyl], the “residual activity (in words)” value is given as “No residual activity”. For C#CCN1C(=O)COc2cc(F)c(N3C(=O)C4=C(CCCC4)C3=O)cc21 [Flumioxazin], the “residual activity (in words)” value is listed as “One to two weeks residual”. In the case of CCOC(=O)COC(=O)c1cc(Oc2ccc(C(F)(F)F)cc2Cl)ccc1[N+](=O)[O-] [Fluoroglycofen-ethyl], the “residual activity (in words)” value is given as “No residual activity”. For COC(=O)CSc1cc(/N=c2\sc(=O)n3n2CCCC3)c(F)cc1Cl [Fluthiacet-methyl], the “residual activity (in words)” value is listed as “No residual activity”. For CS(=O)(=O)NC(=O)c1cc(Oc2ccc(C(F)(F)F)cc2Cl)ccc1[N+](=O)[O-] [Fomesafen], the residual activity is listed as 12-month residual activity. For CP(=O)(O)CCC(N)C(=O)O (stereo not drawn) [Glufosinate], the “residual activity (in words)” value is listed as “Kills shoots and roots, short residual activity”. In the case of Cc1cnc(C2=NC(=O)C(C)(C(C)C)N2)c(C(=O)O)c1 (stereo not drawn) [Imazapic], the “residual activity (in words)” value is given as “Four months residual activity”. For CC(C)C1(C)N=C(c2ncccc2C(=O)O)NC1=O (stereo not drawn) [Imazapyr], the “residual activity (in words)” value is listed as “Four months residual activity”. In the case of CCc1cnc(C2=NC(C)(C(C)C)C(=O)N2)c(C(=O)O)c1 (stereo not drawn) [Imazethapyr], the “residual activity (in words)” value is given as “Two to three months residual”. For CC(C)N(C(=O)n1cnn(-c2ccc(Cl)cc2Cl)c1=O)c1ccc(F)cc1F [Ipfencarbazone], the residual activity is given as 70 days residual activity. For CS(=O)(=O)c1cc(C(F)(F)F)ccc1C(=O)c1cnoc1C1CC1 [Isoxaflutole], the “residual activity (in words)” value is given as “No residual activity”. In the case of CCOC(=O)C(C)OC(=O)c1cc(Oc2ccc(C(F)(F)F)cc2Cl)ccc1[N+](=O)[O-] (stereo not drawn) [Lactofen], the residual activity is listed as “Very short residual activity (2-3 weeks)”. For CS(=O)(=O)c1ccc(C(=O)C2C(=O)CCCC2=O)c([N+](=O)[O-])c1 [Mesotrione], the residual activity is listed as “Limited residual activity (6-15 days)”. For CC(C)Oc1cc(-n2nc(C(C)(C)C)oc2=O)c(Cl)cc1Cl [Oxadiazon], the residual activity is listed as “Moderate residual activity (2 months)”. For CCOc1cc(Oc2ccc(C(F)(F)F)cc2Cl)ccc1[N+](=O)[O-] [Oxyfluorfen], the residual is listed as “Kills shoots and roots, 30 d residual”. In the case of CCCCCCCCC(=O)O [Pelargonic acid], the “residual activity (in words)” value is listed as “No residual activity”. In the case of CC(C)=C1OC(=O)N(c2cc(OC3CCCC3)c(Cl)cc2F)C1=O [Pentoxazone], the “residual activity (in words)” value is given as “No residual activity”. For CCOC(=O)COc1cc(-c2nn(C)c(OC(F)F)c2Cl)c(F)cc1Cl [Pyraflufen-ethyl], the “residual activity (in words)” value is given as “Burndown activity with no residual”. For Cc1nn(C)c(OCC(=O)c2ccccc2)c1C(=O)c1ccc(Cl)cc1Cl [Pyrazoxyfen], the residual activity is listed as 4-15 days residual activity. In the case of CC(C)N(C)S(=O)(=O)NC(=O)c1cc(-n2c(=O)cc(C(F)(F)F)n(C)c2=O)c(F)cc1Cl [Saflufenacil], the “residual activity (in words)” value is listed as “No residual activity”. In the case of CS(=O)(=O)c1ccc(C(=O)C2C(=O)CCCC2=O)c(Cl)c1 [Sulcotrione], the “residual activity (in words)” value is given as “No residual activity”. For CS(=O)(=O)c1ccc(C(=O)C2C(=O)CCCC2=O)c(Cl)c1COCC(F)(F)F [Tembotrione], the residual activity is given as 14 days residual activity. In the case of COC(=O)CCNC(=O)C(C)Sc1cc(-n2c(=O)cc(C(F)(F)F)n(C)c2=O)c(F)cc1Cl (stereo not drawn) [Tiafenacil], the “residual activity (in words)” value is listed as “Burndown with no residual activity”. For Cc1c(C(=O)c2cnn(C)c2O)ccc(S(C)(=O)=O)c1C1=NOCC1 [Topramezone], the residual activity is listed as 14 days residual activity. In the case of C#CCN1C(=O)C(F)(F)Oc2cc(F)c(-n3c(=O)n(C)c(=S)n(C)c3=O)cc21 [Trifludimoxazin], the residual activity is listed as “Short residual activity of 40 days”. In the case of Capric/decanoate acid of salt thereof, the “residual activity (in words)” value is listed as “No residual activity”. For Oxadiargyl, the “residual activity (in words)” value is listed as “Pre-emergent active”.
